Reference: publication doi:10.1101/2020.09.01.277368v1, “Disulfiram inhibits M. tuberculosis growth by altering methionine pool, redox status and host-immune response” (biorxiv, 2020)

Biological target: T1, MetA (HSAT, homoserine acetyl transferase, Rv3341) (Mycobacterium tuberculosis, UniProt P9WJY9)
T1 construct: gene metXA
Test: endpoint DTNB CoA release assay
Assay type: biochemical

T1 sequence (P9WJY9 whole entry, looked up): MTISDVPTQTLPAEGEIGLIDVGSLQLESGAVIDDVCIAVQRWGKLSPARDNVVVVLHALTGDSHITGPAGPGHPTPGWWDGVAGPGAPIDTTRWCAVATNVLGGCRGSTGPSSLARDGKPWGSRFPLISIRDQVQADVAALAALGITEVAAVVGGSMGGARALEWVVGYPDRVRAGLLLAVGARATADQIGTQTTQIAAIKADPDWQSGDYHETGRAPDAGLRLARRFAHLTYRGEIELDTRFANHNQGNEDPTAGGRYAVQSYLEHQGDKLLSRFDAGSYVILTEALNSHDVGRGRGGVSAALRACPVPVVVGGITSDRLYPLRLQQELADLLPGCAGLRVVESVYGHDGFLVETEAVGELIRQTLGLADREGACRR

Row | Structure (SMILES) | % inhibition at 100 μM
1 | O=Nc1c(-c2cccc([N+](=O)[O-])c2)nc2ncccn12 [NSC369066] | > 50%
2 | CCOC(=O)/C(C#N)=C1\SS/C(=C(/C#N)C(=O)OCC)S1 [NSC98363] | > 50%
3 | Cc1ccc(S(=O)(=O)SC/C=C/CSS(=O)(=O)c2ccc(C)cc2)cc1 [NSC624158] | > 50%
4 | C/C(=N\NC(=S)N(C)C)c1ccccn1.[Cu][Br] [NSC635448] | > 50%
5 | COc1cc(-c2ccc(Nc3ccccc3C(=O)O)c(OC)c2)ccc1Nc1ccccc1C(=O)O [NSC73735] | > 50%
6 | Oc1cc(-n2cccn2)c(O)cc1-n1cccn1 [NSC645987] | > 50%
7 | Oc1cc(CNC2CCCCC2)c(O)cc1CNC1CCCCC1 [NSC48443] | > 50%
